From patent US20100184699A1, “Peptide Derived From Prostate-Related Protein As Cancer Vaccine Candidate For Prostate Cancer Patient Who Is Positive For Hla-A3 Super-Type Allele Molecule” (priority 2005, published 2010)

Tested on: peptide-specific IgG in plasma of prostate cancer patients and healthy donors
Test: Detection of peptide-specific IgG in plasma by ELISA
Format: binding, human
Settings: for IgG reactive to peptide in plasma: 1:100-diluted plasma
[1] = Prostate cancer patient 12, A11
[2] = Prostate cancer patient 14, A33
[3] = Prostate cancer patient 17, A33
[4] = Prostate cancer patient 19, A33
[5] = Prostate cancer patient 20, A33

| Sequence | IgG reactive to peptide in plasma, Total (positive/tested) (Healthy donors) | IgG reactive to peptide in plasma (Prostate cancer patient 2, A31) | IgG reactive to peptide in plasma (Prostate cancer patient 4, A31) | IgG reactive to peptide in plasma (Prostate cancer patient 6, A31) | IgG reactive to peptide in plasma (Prostate cancer patient 7, A11) | IgG reactive to peptide in plasma (Prostate cancer patient 8, A11) | IgG reactive to peptide in plasma (Prostate cancer patient 9, A11) | IgG reactive to peptide in plasma [1] | IgG reactive to peptide in plasma [2] | IgG reactive to peptide in plasma [3] | IgG reactive to peptide in plasma (Prostate cancer patient 18, A33) | IgG reactive to peptide in plasma [4] | IgG reactive to peptide in plasma [5] | IgG reactive to peptide in plasma, Total (positive/tested) (Prostate cancer patients) | IgG reactive to peptide in plasma (Prostate cancer patient 16, A33) | IgG reactive to peptide in plasma (Prostate cancer patient 10, A11) | IgG reactive to peptide in plasma (Healthy donor 8, A31) | IgG reactive to peptide in plasma (Prostate cancer patient 13, A11) |
| --- | --- | --- | --- | --- | --- | --- | --- | --- | --- | --- | --- | --- | --- | --- | --- | --- | --- | --- |
| TLRGAVEPDR [PSMA 361-370] | 0/9 | + (IgG reactive to a corresponding peptide was judged to be positive when a difference of the optical density (OD) in a 1:100-diluted plasma was more than 100) | + (IgG reactive to a corresponding peptide was judged to be positive when a difference of the optical density (OD) in a 1:100-diluted plasma was more than 100) | + (IgG reactive to a corresponding peptide was judged to be positive when a difference of the optical density (OD) in a 1:100-diluted plasma was more than 100) | + (IgG reactive to a corresponding peptide was judged to be positive when a difference of the optical density (OD) in a 1:100-diluted plasma was more than 100) | + (IgG reactive to a corresponding peptide was judged to be positive when a difference of the optical density (OD) in a 1:100-diluted plasma was more than 100) | + (IgG reactive to a corresponding peptide was judged to be positive when a difference of the optical density (OD) in a 1:100-diluted plasma was more than 100) | + (IgG reactive to a corresponding peptide was judged to be positive when a difference of the optical density (OD) in a 1:100-diluted plasma was more than 100) | + (IgG reactive to a corresponding peptide was judged to be positive when a difference of the optical density (OD) in a 1:100-diluted plasma was more than 100) | + (IgG reactive to a corresponding peptide was judged to be positive when a difference of the optical density (OD) in a 1:100-diluted plasma was more than 100) | + (IgG reactive to a corresponding peptide was judged to be positive when a difference of the optical density (OD) in a 1:100-diluted plasma was more than 100) | + (IgG reactive to a corresponding peptide was judged to be positive when a difference of the optical density (OD) in a 1:100-diluted plasma was more than 100) | + (IgG reactive to a corresponding peptide was judged to be positive when a difference of the optical density (OD) in a 1:100-diluted plasma was more than 100) | 12/20 | – | – | – | – |
| VIARYGKVFR (PSMA 201-210) [PSMA-derived peptide] | 0/9 | – | + (IgG reactive to a corresponding peptide was judged to be positive when a difference of the optical density (OD) in a 1:100-diluted plasma was more than 100) | + (IgG reactive to a corresponding peptide was judged to be positive when a difference of the optical density (OD) in a 1:100-diluted plasma was more than 100) | – | – | + (IgG reactive to a corresponding peptide was judged to be positive when a difference of the optical density (OD) in a 1:100-diluted plasma was more than 100) | + (IgG reactive to a corresponding peptide was judged to be positive when a difference of the optical density (OD) in a 1:100-diluted plasma was more than 100) | – | + (IgG reactive to a corresponding peptide was judged to be positive when a difference of the optical density (OD) in a 1:100-diluted plasma was more than 100) | – | + (IgG reactive to a corresponding peptide was judged to be positive when a difference of the optical density (OD) in a 1:100-diluted plasma was more than 100) | + (IgG reactive to a corresponding peptide was judged to be positive when a difference of the optical density (OD) in a 1:100-diluted plasma was more than 100) | 7/20 | + (IgG reactive to a corresponding peptide was judged to be positive when a difference of the optical density (OD) in a 1:100-diluted plasma was more than 100) | – | – | – |
| VTKFMLCAGR (PSA 192-201) [PSA-derived peptide] | 0/9 | – | – | – | – | – | – | – | – | – | – | – | – | 1/20 | – | + (IgG reactive to a corresponding peptide was judged to be positive when a difference of the optical density (OD) in a 1:100-diluted plasma was more than 100) | – | – |
| VTLVFRHGDR (PAP 38-47) [PAP-derived peptide] | 1/9 | – | – | – | – | – | + (IgG reactive to a corresponding peptide was judged to be positive when a difference of the optical density (OD) in a 1:100-diluted plasma was more than 100) | – | – | – | – | – | – | 1/20 | – | – | + (IgG reactive to a corresponding peptide was judged to be positive when a difference of the optical density (OD) in a 1:100-diluted plasma was more than 100) | – |
| VYIRSTDVDR (PAP 102-111) [PAP-derived peptide] | 0/9 | – | – | – | – | – | – | – | + (IgG reactive to a corresponding peptide was judged to be positive when a difference of the optical density (OD) in a 1:100-diluted plasma was more than 100) | – | – | – | – | 2/20 | – | – | – | + (IgG reactive to a corresponding peptide was judged to be positive when a difference of the optical density (OD) in a 1:100-diluted plasma was more than 100) |
| WVLTAAHCIR [PSA 59-68] | 0/9 | – | – | – | – | – | – | – | – | – | – | – | – | 0/20 | – | – | – | – |
| YPANEYAYRR (PSMA 272-281) [PSMA-derived peptide] | 0/9 | + (IgG reactive to a corresponding peptide was judged to be positive when a difference of the optical density (OD) in a 1:100-diluted plasma was more than 100) | + (IgG reactive to a corresponding peptide was judged to be positive when a difference of the optical density (OD) in a 1:100-diluted plasma was more than 100) | + (IgG reactive to a corresponding peptide was judged to be positive when a difference of the optical density (OD) in a 1:100-diluted plasma was more than 100) | – | – | + (IgG reactive to a corresponding peptide was judged to be positive when a difference of the optical density (OD) in a 1:100-diluted plasma was more than 100) | + (IgG reactive to a corresponding peptide was judged to be positive when a difference of the optical density (OD) in a 1:100-diluted plasma was more than 100) | + (IgG reactive to a corresponding peptide was judged to be positive when a difference of the optical density (OD) in a 1:100-diluted plasma was more than 100) | + (IgG reactive to a corresponding peptide was judged to be positive when a difference of the optical density (OD) in a 1:100-diluted plasma was more than 100) | – | + (IgG reactive to a corresponding peptide was judged to be positive when a difference of the optical density (OD) in a 1:100-diluted plasma was more than 100) | – | 8/20 | – | – | – | – |
